Experimental findings from US9321764B2, “Dihydro-pyrrolopyridinone inhibitors” (AbbVie Inc., priority 2013, dated 2016) are described below.

One test has as its target T1, BRD4 (BDI_K57-E168) (Homo sapiens, UniProt O60885).
T1 construct: BD1: amino acids K57-E168; made in house
The test is described as follows: TR-FRET bromodomain binding assay, first bromodomain of BRD4. The following applies: His-tagged BD1, 100 nM Alexa647 probe; TR-FRET protocol A-E given per row. The protocol:
(§1) A time-resolved fluorescence resonance energy transfer (TR-FRET) assay was used to determine the affinities of compounds of the Examples listed in Table 1 for each bromodomain of BRD4. His-tagged first (BD1: amino acids K57-E168) and second (BD2: amino acids E352-E168) bromodomains of BRD4 were expressed and purified. An Alexa647-labeled BET-inhibitor was used as the fluorescent probe in the assay.
(§2) Compound dilution series were prepared in DMSO via an approximately 3-fold serial dilution from one of the following:
Assay method A: 250 μM-4.2 nM
Assay method B: 0.47 mM to 7.8 nM
Assay method C: 500 μM-8.5 nM
(§3) Assay method D: 2.5 mM-800 nM
Assay method E: 0.047 mM to 0.78 nM or 5-fold serial dilution from Assay method D
For Assay methods A, C, and D: Compounds were then diluted 6:100 in assay buffer (20 mM Sodium Phosphate, pH 6.0, 50 mM NaCl, 1 mM Ethylenediaminetetraacetic acid, 0.01% Triton X-100, 1 mM DL-Dithiothreitol) to yield 3× working solutions. Six microliters (μL) of the working solution was then transferred to white, low-volume assay plates (Costar #3673). A 1.5× assay mixture containing His-tagged bromodomain, Europium-conjugated anti-His antibody (Invitrogen PV5596) and the Alexa-647-conjugated probe molecule was also prepared. Twelve μL of this solution were added to the assay plate to reach a final volume of 18 μL.
For Assay methods B and E: Compound dilutions were added directly into white, low-volume assay plates (Perkin Elmer Proxiplate 384 Plus #6008280) using a Labcyte Echo in conjunction with Labcyte Access and Thermo Multidrop CombinL robotics. Compounds were then suspended in eight microliters (μL) of assay buffer (20 mM Sodium Phosphate, pH 6.0, 50 mM NaCl, 1 mM Ethylenediaminetetraacetic acid disodium salt dihydrate, 0.01% Triton X-100, 1 mM DL-Dithiothreitol) containing His-tagged bromodomain, Europium-conjugated anti-His antibody (Invitrogen PV5596) and Alexa-647-conjugated probe.
The final concentration of 1× assay mixture for assay methods A, B, C, D, and E contains 2% DMSO, 8 nM His-tagged bromodomain, 1 nM Europium-conjugated anti-His-tag antibody and 100 nM or 30 nM probe (for BDI or BDII, respectively) and compound concentration in the range of: 5 μM-85 pM for method A, 9.19 μM 150 pM for method B, 10 μM-169 pM for method C, 50 μM-16 nM for method D, and 0.92 μM-15 pM for method E.
After a one-hour equilibration at room temperature, TR-FRET ratios were determined using an Envision multilabel plate reader (Ex 340, Em 495/520).
TR-FRET data were normalized to the means of 24 no-compound controls (“high”) and 8 controls containing 1 μM un-labeled probe (“low”). Percent inhibition was plotted as a function of compound concentration and the data were fit with the 4 parameter logistic equation to obtain IC50s Inhibition constants (Ki) were calculated from the IC50s, probe Kd and probe concentration. Typical Z′ values were between 0.65 and 0.75. The minimum significant ratio was determined to evaluate assay reproducibility (Eastwood et al., (2006) J Biomol Screen, 11: 253-261). The MSR was determined to be 2.03 for BDI and 1.93 for BDII, and a moving MSR (last six run MSR overtime) for both BDI and BDII was typically <3.

The target of the next test is T2, BRD4 (BDII_E352-M457) (Homo sapiens, UniProt O60885).
T2 construct: proliferation; Protocol; made in house
Description: TR-FRET bromodomain binding assay, second bromodomain of BRD4. To be noted: His-tagged BD2, 30 nM Alexa647 probe; TR-FRET protocol A-E given per row. The protocol:
as §1, §2, §3
For Assay methods A, C, and D: Compounds were then diluted 6:100 in assay buffer (20 mM Sodium Phosphate, pH 6.0, 50 mM NaCl, 1 mM Ethylenediaminetetraacetic acid, 0.01% Triton X-100, 1 mM DL-Dithiothreitol) to yield 3× working solutions. […] Twelve μL of this solution were added to the assay plate to reach a final volume of 18 μL.
TR-FRET data were normalized to the means of 24 no-compound controls (“high”) and 8 controls containing 1 μM un-labeled probe (“low”). Percent inhibition was plotted as a function of compound concentration and the data were fit with the 4 parameter logistic equation to obtain IC50s Inhibition constants (Ki) were calculated from the IC50s, probe Kd and probe concentration. Typical Z′ values were between 0.65 and 0.75.
In general terms: TR-FRET usually uses a lanthanide donor and a delayed reading to cut background.

With `Cn1cc(-c2cc(S(C)(=O)=O)ccc2OC2Cc3ccccc3C2)c2cc[nH]c(=O)c21` [Example 38, 3-[2-(2,3-dihydro-1H-inden-2-yloxy)-5-(methylsulfonyl)phenyl]-1-methyl-1,6-dihydro-7H-pyrrolo[2,3-c]pyridin-7-one], the Ki came to 90 nM at BRD4 (BDI_K57-E168) and 435 nM on BRD4 (BDII_E352-M457).

In the case of `Cn1ccc2c(-c3cc(S(C)(=O)=O)ccc3OCC3CC3(F)F)cn(C)c2c1=O` (centres unmarked) [Example 43, 3-{2-[(2,2-difluorocyclopropyl)methoxy]-5-(methylsulfonyl)phenyl}-1,6-dimethyl-1,6-dihydro-7H-pyrrolo[2,3-c]pyridin-7-one], the inhibition constant (Ki) on BRD4 (BDI_K57-E168) stood at 2580 nM; at BRD4 (BDII_E352-M457), 2540 nM.

Turning to `Cn1cc(-c2cc(NCc3c(F)cccc3F)ccc2Oc2ccc(F)cc2F)c2cc[nH]c(=O)c21` [Example 175, 3-{5-[(2,6-difluorobenzyl)amino]-2-(2,4-difluorophenoxy)phenyl}-1-methyl-1,6-dihydro-7H-pyrrolo[2,3-c]pyridin-7-one], the Ki on BRD4 (BDI_K57-E168) worked out at 69.1 nM; at BRD4 (BDII_E352-M457), 285 nM.

Regarding `CCS(=O)(=O)Nc1ccc(Oc2ccc(F)cc2F)c(-c2cn(C)c3c(=O)[nH]c(C(=O)NCCN4CCCCC4)cc23)c1` [Example 198, 3-{2-(2,4-difluorophenoxy)-5-[(ethylsulfonyl)amino]phenyl}-1-methyl-7-oxo-N-[2-(piperidin-1-yl)ethyl]-6,7-dihydro-1H-pyrrolo[2,3-c]pyridine-5-carboxamide], the Ki at BRD4 (BDI_K57-E168) worked out at 3.18 nM; at BRD4 (BDII_E352-M457), 10.9 nM.

With `Cn1cc(-c2cc(S(C)(=O)=O)ccc2OCCc2cccs2)c2cc[nH]c(=O)c21` [Example 39, 1-methyl-3-{5-(methylsulfonyl)-2-[2-(thiophen-2-yl)ethoxy]phenyl}-1,6-dihydro-7H-pyrrolo[2,3-c]pyridin-7-one], the inhibition constant (Ki) on BRD4 (BDI_K57-E168) turned out to be 63 nM; on BRD4 (BDII_E352-M457), 51 nM.

With `Cn1cc(-c2cc(N)ccc2Oc2ccc(F)cc2F)c2cc[nH]c(=O)c21` [Example 146, 3-[5-amino-2-(2,4-difluorophenoxy)phenyl]-1-methyl-1,6-dihydro-7H-pyrrolo[2,3-c]pyridin-7-one], the Ki at BRD4 (BDI_K57-E168) is 25.3 nM; on BRD4 (BDII_E352-M457), 90.1 nM.

`Cc1c[nH]c(=O)c2c1c(-c1cc(S(C)(=O)=O)ccc1Oc1ccc(F)cc1F)cn2C` [Example 123, 3-[2-(2,4-difluorophenoxy)-5-(methylsulfonyl)phenyl]-1,4-dimethyl-1,6-dihydro-7H-pyrrolo[2,3-c]pyridin-7-one]: the Ki at BRD4 (BDI_K57-E168) amounted to 130 nM; on BRD4 (BDII_E352-M457), 428 nM.

In the case of `COc1ccc(Oc2cccc(CNc3ccc(Oc4ccc(F)cc4F)c(-c4cn(C)c5c(=O)[nH]ccc45)c3)c2)cc1` [Example 168, 3-[2-(2,4-difluorophenoxy)-5-{[3-(4-methoxyphenoxy)benzyl]amino}phenyl]-1-methyl-1,6-dihydro-7H-pyrrolo[2,3-c]pyridin-7-one], the Ki came out at 386 nM on BRD4 (BDI_K57-E168) and 1200 nM on BRD4 (BDII_E352-M457).

Turning to `COc1ccccc1CC(=O)Nc1ccc(Oc2ccc(F)cc2F)c(-c2cn(C)c3c(=O)[nH]ccc23)c1` [Example 149, N-[4-(2,4-difluorophenoxy)-3-(1-methyl-7-oxo-6,7-dihydro-1H-pyrrolo[2,3-c]pyridin-3-yl)phenyl]-2-(2-methoxyphenyl)acetamide], the inhibitory constant (Ki) at BRD4 (BDI_K57-E168) was found to be 41.6 nM; at BRD4 (BDII_E352-M457) it was 54 nM.

Regarding `Cn1cc(-c2cc(NC(=O)Cc3noc4ccccc34)ccc2Oc2ccc(F)cc2F)c2cc[nH]c(=O)c21` [Example 158, 2-(1,2-benzoxazol-3-yl)-N-[4-(2,4-difluorophenoxy)-3-(1-methyl-7-oxo-6,7-dihydro-1H-pyrrolo[2,3-c]pyridin-3-yl)phenyl]acetamide], the inhibitory constant (Ki) was found to be 76.4 nM at BRD4 (BDI_K57-E168) and 153 nM on BRD4 (BDII_E352-M457).

As to `CCS(=O)(=O)c1ccc(Oc2ccc(Cl)c(Cl)c2)c(-c2cn(C)c3c(=O)[nH]ccc23)c1` [Example 76, 3-[2-(3,4-dichlorophenoxy)-5-(ethylsulfonyl)phenyl]-1-methyl-1,6-dihydro-7H-pyrrolo[2,3-c]pyridin-7-one], the Ki at BRD4 (BDI_K57-E168) came to 77 nM; at BRD4 (BDII_E352-M457), 64 nM.

As for `Cn1cc(-c2cc(S(C)(=O)=O)ccc2NCC(F)(F)C(F)(F)C(F)(F)F)c2cc[nH]c(=O)c21` [Example 70, 3-{2-[(2,2,3,3,4,4,4-heptafluorobutyl)amino]-5-(methylsulfonyl)phenyl}-1-methyl-1,6-dihydro-7H-pyrrolo[2,3-c]pyridin-7-one], the Ki is 613 nM on BRD4 (BDI_K57-E168) and 1660 nM at BRD4 (BDII_E352-M457).

On to `Cn1cc(-c2cc(NC(=O)CCc3ccccc3)ccc2Oc2ccc(F)cc2F)c2cc[nH]c(=O)c21` [Example 152, N-[4-(2,4-difluorophenoxy)-3-(1-methyl-7-oxo-6,7-dihydro-1H-pyrrolo[2,3-c]pyridin-3-yl)phenyl]-3-phenylpropanamide], for which the Ki on BRD4 (BDI_K57-E168) was 141 nM; on BRD4 (BDII_E352-M457), 95.3 nM.

As for `Cn1cc(-c2c(OCC3CC3)ccc3cc[nH]c23)c2cc[nH]c(=O)c21` [Example 98, 3-[6-(cyclopropylmethoxy)-1H-indol-7-yl]-1-methyl-1,6-dihydro-7H-pyrrolo[2,3-c]pyridin-7-one], the inhibition constant (Ki) is 992 nM at BRD4 (BDI_K57-E168) and 2030 nM on BRD4 (BDII_E352-M457).

For the compound `Cn1cc(-c2cc(NC(=O)c3ccccn3)ccc2Oc2ccc(F)cc2F)c2cc[nH]c(=O)c21` [Example 150, N-[4-(2,4-difluorophenoxy)-3-(1-methyl-7-oxo-6,7-dihydro-1H-pyrrolo[2,3-c]pyridin-3-yl)phenyl]pyridine-2-carboxamide], the Ki on BRD4 (BDI_K57-E168) was 22 nM; at BRD4 (BDII_E352-M457) it was 145 nM.

Turning to `Cn1cc(-c2cc(NCCC(C)(C)C)ccc2Oc2ccc(F)cc2F)c2cc[nH]c(=O)c21` [Example 174, 3-{2-(2,4-difluorophenoxy)-5-[(3,3-dimethylbutyl)amino]phenyl}-1-methyl-1,6-dihydro-7H-pyrrolo[2,3-c]pyridin-7-one], the values for the Ki on BRD4 (BDI_K57-E168) and on BRD4 (BDII_E352-M457) were 57.5 nM and 215 nM, respectively.

Regarding `CCS(=O)(=O)c1ccc(Oc2ccc(C#N)cc2OC)c(-c2cn(C)c3c(=O)[nH]ccc23)c1` [Example 80, 4-[4-(ethylsulfonyl)-2-(1-methyl-7-oxo-6,7-dihydro-1H-pyrrolo[2,3-c]pyridin-3-yl)phenoxy]-3-methoxybenzonitrile], the Ki was 56 nM on BRD4 (BDI_K57-E168) and 53 nM on BRD4 (BDII_E352-M457).

For `CCS(=O)(=O)c1cnc(Oc2ccc(F)cc2F)c(-c2cn(C)c3c(=O)[nH]ccc23)c1` [Example 59, 3-[2-(2,4-difluorophenoxy)-5-(ethylsulfonyl)pyridin-3-yl]-1-methyl-1,6-dihydro-7H-pyrrolo[2,3-c]pyridin-7-one], the Ki was determined as 606 nM on BRD4 (BDI_K57-E168) and 600 nM at BRD4 (BDII_E352-M457).

Consider `CCS(=O)(=O)Nc1ccc(Oc2ccc(F)cc2F)c(-c2cn(C)c3c(=O)[nH]c(C(=O)NCc4ccoc4)cc23)c1` [Example 201, 3-{2-(2,4-difluorophenoxy)-5-[(ethylsulfonyl)amino]phenyl}-N-(furan-3-ylmethyl)-1-methyl-7-oxo-6,7-dihydro-1H-pyrrolo[2,3-c]pyridine-5-carboxamide], for which the Ki is 3.47 nM on BRD4 (BDI_K57-E168) and 11.4 nM at BRD4 (BDII_E352-M457).

As usually defined, the Ki is the equilibrium dissociation constant of an inhibitor or competing ligand from its target.
